From the NIST ThermoML archive (doi:10.1016/j.jct.2005.09.003)

Experiment: xn = mol fraction of the nth substance listed
Conditions: Liquid, x1 = 1

CCCCCCCC [octane] + CCCCCCCl
mass density [kg/m3]
Conditions	298.15 K	308.15 K	318.15 K	328.15 K
100 kPa	698.64	690.43	682.47	674.53
2130 kPa	700.14	692.18	684.48	676.49
4150 kPa	701.87	694	686.45	678.56
6180 kPa	703.56	695.79	688.29	680.59
8210 kPa	705.17	697.53	690.17	682.57
10230 kPa	706.78	699.24	691.97	684.51
11250 kPa	707.58	700.07	692.85	685.44
12260 kPa	708.37	700.88	693.77	686.38
14290 kPa	709.9	702.55	695.49	688.23
16310 kPa	711.41	704.13	697.2	690.03
18340 kPa	712.9	705.71	698.86	691.76
20370 kPa	714.36	707.23	700.47	693.5
22390 kPa	715.78	708.76	702.07	695.17
24420 kPa	717.18	710.22	703.61	696.82
26450 kPa	718.56	711.66	705.13	698.41
28470 kPa	719.9	713.09	706.66	699.98
29490 kPa	720.57	713.77	707.38	700.75
30500 kPa	721.22	714.47	708.13	701.53
32530 kPa	722.53	715.84	709.54	703.01
34550 kPa	723.82	717.18	710.96	704.5
36580 kPa	725.06	718.5	712.33	705.96
38600 kPa	726.32	719.82	713.68	707.36
39620 kPa	726.94	720.45	714.38	708.06
